The record followed here is paper PMC10227015, “From a drug repositioning to a structure-based drug design approach to tackle acute lymphoblastic leukemia” (Nature Communications, 2023).

Entries after “also recorded” stand apart in the source; their conditions may differ. Read-outs that look alike come from different tables or passages of the source. Where only a bound is given, the exact number is not on record here.

Broadly, the IC50 is the concentration at which inhibition is half-maximal. What is called Cmax is the peak of the concentration-time curve. In general, Tmax refers to the time from dosing to the highest level.

The nature of series [1]: Acute in vivo toxicity, unique IP injection. Conditions: male, mouse, in vivo; Swiss mice, IP, unique injection; read-out: Maximum tolerated dose. As to the method: (§1) To evaluate the in vivo toxicity selected compounds were injected by intraperitoneal (IP) route to 7 weeks-old male Swiss mice (n = 2) at 10, 20, 40, 50, or 80 mg/kg by unique injection. […] Compounds were administered in their hydrochloride salt forms. Mice were then observed closely for the next one hour, then every hour for 8 h. Observations were continued for 72 h for signs of pain or toxicity such as change in the behavior and in the activity in the cage (decreased locomotion) or change in the appearance (curved back, eyes half-closed, bristle hair, hips hollowed out). In vivo toxicity of compound OR0642 at 40 and 80 mg/kg was also assessed in the NOD-SCID-IL2Rγc null (NSG) mice model for 2 weeks in the presence and absence of dT to confirm the safety of the compound. […]. Blood samples were collected and spun at 10,000 × g prior to collecting the plasma supernatants. All plasma samples were frozen at −80 °C before sample processing. 13 μl of each plasma sample was mixed with 33 μl of acetonitrile to precipitate proteins and extract the compound. Samples were vortexed for 5 min and then placed in an ultrasonic bath for 1 min. The precipitated proteins were sedimented by centrifugation (15,000 × g, 5 min, 16 °C). Supernatants were transferred to a microplate to be analyzed by LC–MS/MS. All samples were analyzed with a UHPLC coupled to a Shimadzu LC-MS 8030 triple quadrupole. The solutions of a standard range, prepared with plasma from untreated mice, were analyzed in the same series of injections.

In a further series the test system is CCRF-CEM cell line. As to the kind of experiment: CCRF-CEM proliferation, compound alone (nonspecific toxicity). The class given is cell-based, human. Conditions: CCRF-CEM, absence of dT + dC. As to the method:
The dCK cellular assay was set up to assess the ability to inhibit dCK activity in a cellular model. The model was developed with a T-cell acute lymphoblastic leukemia cell line (CCRF-CEM), because of its high dependence on the SP, thus on dCK activity. Cellular assays were performed to assess the inhibition of cell proliferation under two conditions: (i) in the presence of the compound alone to determine the nonspecific effect on cells, independent of dCK (nonspecific toxicity) and (ii) in the presence of an inhibitor of the DNP to determine the ability of compounds to inhibit dCK and decrease tumor proliferation (activity on dCK). The inhibitor of the DNP chosen for the experiments was thymidine (dT), a physiological inhibitor of ribonucleotide reductase which arrests cell proliferation in phase S. The dTTP produced via thymidine kinase from dT acts as a RNR inhibitor by an allosteric regulation of the R1 subunit. The addition of the nucleoside deoxycytidine (dC) in the medium allows the rescue of cell proliferation by passing only through the salvage pathway, mediated by dCK. dC needs to be added exogenously to mimic physiological concentrations because it is not present in the cell culture medium, on the contrary to mouse model, in which it is naturally present in the serum. Therefore, cell proliferation under these conditions (+dT +dC) is dCK dependent and it is possible to determine the IC50 of dCK inhibitors on the inhibition of cell proliferation. Results are expressed as % cell proliferation relative to the control with DMSO.
The amount of reduced dye formed by metabolically active cells was quantified by its fluorescence measured at 560 nm (excitation) and 590 nm (emission) in a microplate reader (CLARIOstar, BMG Labtech). A blank well without cells was used as a background control. Each experiment was performed at least three times (with technical triplicates) and data are presented as the mean ± SD.

For a further series, the system named is dCK-C3S-S74E. As to the kind of experiment: Enzymatic assay (PK/LDH coupled), dC phosphorylation by dCK in the presence of ATP. The class given is biochemical, human. Summed up: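 Continuous PK/LDH-coupled readout tracked NADH fluorescence loss at 460 nm while 1 mM ATP and 100 µM dC were turned over by 100 nM (or 50 nM) dCK-C3S-S74E in HEPES pH 7.5 buffer with MgCl2, DTT and KCl. Linear-range slopes normalized to no-compound control; IC50 fitted by nonlinear regression across compound concentrations.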

Series [2] can be described thus: Plasma pharmacokinetics after IP administration. Conditions: male, Swiss, mouse, mice. The class given is in vivo. The method, then:
as §1

dCK-C3S-S74E, sequence (P27707 whole entry S74E, form open): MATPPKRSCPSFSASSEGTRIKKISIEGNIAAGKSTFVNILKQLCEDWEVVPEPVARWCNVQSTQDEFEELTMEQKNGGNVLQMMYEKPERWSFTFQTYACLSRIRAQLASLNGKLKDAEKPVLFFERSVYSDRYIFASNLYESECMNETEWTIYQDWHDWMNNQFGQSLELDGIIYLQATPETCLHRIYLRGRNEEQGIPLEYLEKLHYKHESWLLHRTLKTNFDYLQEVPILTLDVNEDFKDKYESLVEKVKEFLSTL

Consider `CCCN(c1nc(-c2nc(N)cc(N)n2)cs1)c1cc(-c2ccc(S(=O)(=O)N3CCN(C)CC3)cc2C(F)(F)F)ccc1C` [OR0642], for which the MTD at 72 h in series [1] is above 80 mg/kg. The “nonspecific cellular toxicity” value in the series on CCRF-CEM cell line is “lack of non-specific toxicity; also recorded: absence of nonspecific toxicity”. The “Enzymatic activity (ATP) Mean (% activity)” value in the series on dCK-C3S-S74E (0.01 µM) was found to be 79.2%; in the series with dCK-C3S-S74E (0.02 µM) it was 80.5%; with dCK-C3S-S74E (0.04 µM), 65.5%; in the series with dCK-C3S-S74E (0.08 µM), 63.0%; in the series on dCK-C3S-S74E (0.16 µM) it was 43.5%; with dCK-C3S-S74E (0.31 µM) it was 8.3%. Further, the “Enzymatic activity (ATP) Mean (% activity)” value is listed as 4.2% with dCK-C3S-S74E (0.63 µM), 2.4% in the series with dCK-C3S-S74E (1.25 µM) and -0.5% in the series with dCK-C3S-S74E (2.5 µM). The IC50 at dCK-C3S-S74E (presence of ATP, [dCK] = 50 nM (footnote A), read-out: ENZYMATIC ASSAY IC50) was 106 ± 30 nM. In addition, the Cmax in series [2] (dose 20 mg/Kg) came out at 800 ± 200 nM; in series [2] (dose 40 mg/Kg), 4100 ± 1500 nM. Moreover, the time to peak (Tmax) was determined as 2 h in series [2] (dose 20 mg/Kg) and 5 h in series [2] (dose 40 mg/Kg). Moreover, the half-life in series [2] (dose 20 mg/Kg, read-out: T ½ (converted)) is 7 ± 3 h; in series [2] (dose 40 mg/Kg, read-out: T ½ (converted)) it was above 8 h; in series [2] (read-out: half-life), above 7 h.
